Experimental data from ChEMBL document CHEMBL3885861, “Open TG-GATES”.

Organism: Rattus norvegicus
Assay: Open TG-GATES - Regimen: Single
Format: toxicity, organism-based, Sprague-Dawley
Design: regimen Single, gender Male, age 6 weeks
Settings: in vivo, po, route gavage; for APTT / Bas / Eos / Fbg / Hb / Ht / Lym / MCH / MCHC / MCV / Mono / Neu / PT / Plat / RBC / Ret / WBC: tissue Blood; for KIDNEY_L / KIDNEY_R / KIDNEY_TOTAL: tissue Kidney; for LIVER: tissue Liver; for A/G / ALP / ALT / AST / BUN / CRE / Ca / Cl / DBIL / GLC / IP / K / LDH / Na / PL / RALB / TBIL / TC / TG / TP / gamma-GTP: tissue Plasma
[1] = 60 mg/kg, 3 h, dose level Middle
[2] = 60 mg/kg, 6 h, dose level Middle
[3] = 60 mg/kg, 9 h, dose level Middle
[4] = 60 mg/kg, 24 h, dose level Middle
[5] = 200 mg/kg, 3 h, dose level High
[6] = 200 mg/kg, 6 h, dose level High
[7] = 200 mg/kg, 9 h, dose level High
[8] = 200 mg/kg, 24 h, dose level High

## Cn1c(=O)c2[nH]cnc2n(C)c1=O.O [THEOPHYLLINE]
[1]
  TERMINAL_BW: 215.5 g
  APTT: 22.1 s
  Bas: 0%
  Eos: 1.2%
  Fbg: 306 mg/dL
  Hb: 12.6 g/dL
  Ht: 38.3%
  Lym: 68.6%
  MCH: 20.2 pg
  MCHC: 32.9%
  MCV: 61.6 fL
  Mono: 2.2%
  Neu: 26.4%
  PT: 15.4 s
  Plat: 117 x10_4/uL
  RBC: 622.6 x10_4/ul
  Ret: 7.6%
  WBC: 72.7 x10_2/uL
  KIDNEY_L: 1 g
  KIDNEY_R: 1 g
  KIDNEY_TOTAL: 1.9 g
  LIVER: 9.3 g
  A/G: 1.3
  ALP: 1415.2 IU/L
  ALT: 44.8 IU/L
  AST: 80.2 IU/L
  BUN: 13 mg/dL
  CRE: 0.2 mg/dL
  Ca: 10.2 mg/dL
  Cl: 108 meq/L
  DBIL: 0 mg/dL
  GLC: 184.4 mg/dL
  IP: 7.3 mg/dL
  K: 3.5 meq/L
  LDH: 184.2 IU/L
  Na: 140.6 meq/L
  PL: 120 mg/dL
  RALB: 3.2 g/dL
  TBIL: 0.022 mg/dL
  TC: 67.8 mg/dL
  TG: 33.6 mg/dL
  TP: 5.6 g/dL
  gamma-GTP: 1.6 IU/L
[2]
  TERMINAL_BW: 215.8 g
  APTT: 23.9 s
  Bas: 0%
  Eos: 0.8%
  Fbg: 302.8 mg/dL
  Hb: 13.1 g/dL
  Ht: 40%
  Lym: 75.2%
  MCH: 20.9 pg
  MCHC: 32.7%
  MCV: 64 fL
  Mono: 3.2%
  Neu: 19.4%
  PT: 15.6 s
  Plat: 119.8 x10_4/uL
  RBC: 626.8 x10_4/ul
  Ret: 7.4%
  WBC: 74.1 x10_2/uL
  KIDNEY_L: 0.9 g
  KIDNEY_R: 0.9 g
  KIDNEY_TOTAL: 1.8 g
  LIVER: 9 g
  A/G: 1.2
  ALP: 1323.6 IU/L
  ALT: 41.6 IU/L
  AST: 86 IU/L
  BUN: 11.6 mg/dL
  CRE: 0.2 mg/dL
  Ca: 10.6 mg/dL
  Cl: 108.4 meq/L
  DBIL: 0 mg/dL
  GLC: 191 mg/dL
  IP: 8.2 mg/dL
  K: 3.5 meq/L
  LDH: 212 IU/L
  Na: 140.4 meq/L
  PL: 126 mg/dL
  RALB: 3.2 g/dL
  TBIL: 0.018 mg/dL
  TC: 70.2 mg/dL
  TG: 36 mg/dL
  TP: 5.7 g/dL
  gamma-GTP: 1.2 IU/L
[3]
  TERMINAL_BW: 211.1 g
  APTT: 22.3 s
  Bas: 0%
  Eos: 0.8%
  Fbg: 349.8 mg/dL
  Hb: 12.9 g/dL
  Ht: 38.8%
  Lym: 73.2%
  MCH: 20.6 pg
  MCHC: 33.4%
  MCV: 61.8 fL
  Mono: 2%
  Neu: 22%
  PT: 15.8 s
  Plat: 120.3 x10_4/uL
  RBC: 630.2 x10_4/ul
  Ret: 7.2%
  WBC: 77.3 x10_2/uL
  KIDNEY_L: 1 g
  KIDNEY_R: 1 g
  KIDNEY_TOTAL: 2 g
  LIVER: 8.6 g
  A/G: 1.2
  ALP: 1618.2 IU/L
  ALT: 43.8 IU/L
  AST: 87.2 IU/L
  BUN: 9.8 mg/dL
  CRE: 0.2 mg/dL
  Ca: 10.7 mg/dL
  Cl: 107.2 meq/L
  DBIL: 0 mg/dL
  GLC: 165.2 mg/dL
  IP: 8.3 mg/dL
  K: 3.7 meq/L
  LDH: 168.2 IU/L
  Na: 140.2 meq/L
  PL: 121.6 mg/dL
  RALB: 3.2 g/dL
  TBIL: 0.022 mg/dL
  TC: 73.8 mg/dL
  TG: 23.8 mg/dL
  TP: 5.9 g/dL
  gamma-GTP: 1.2 IU/L
[4]
  TERMINAL_BW: 225.6 g
  APTT: 22.2 s
  Bas: 0%
  Eos: 0.8%
  Fbg: 293 mg/dL
  Hb: 13.9 g/dL
  Ht: 41.4%
  Lym: 76.2%
  MCH: 20.6 pg
  MCHC: 33.6%
  MCV: 61.2 fL
  Mono: 3%
  Neu: 18.6%
  PT: 16 s
  Plat: 115 x10_4/uL
  RBC: 676.8 x10_4/ul
  Ret: 6.5%
  WBC: 97.8 x10_2/uL
  KIDNEY_L: 1 g
  KIDNEY_R: 1 g
  KIDNEY_TOTAL: 2 g
  LIVER: 10.1 g
  A/G: 1.2
  ALP: 1662.4 IU/L
  ALT: 42.8 IU/L
  AST: 73.4 IU/L
  BUN: 15.6 mg/dL
  CRE: 0.2 mg/dL
  Ca: 10.9 mg/dL
  Cl: 106 meq/L
  DBIL: 0.006 mg/dL
  GLC: 191.2 mg/dL
  IP: 8.8 mg/dL
  K: 4.1 meq/L
  LDH: 168.4 IU/L
  Na: 142.2 meq/L
  PL: 135.4 mg/dL
  RALB: 3 g/dL
  TBIL: 0.006 mg/dL
  TC: 78.2 mg/dL
  TG: 60.6 mg/dL
  TP: 5.5 g/dL
  gamma-GTP: 1.4 IU/L
[5]
  TERMINAL_BW: 215.6 g
  APTT: 22.6 s
  Bas: 0%
  Eos: 1%
  Fbg: 278 mg/dL
  Hb: 12.3 g/dL
  Ht: 37.4%
  Lym: 67.2%
  MCH: 20.1 pg
  MCHC: 32.9%
  MCV: 60.9 fL
  Mono: 3%
  Neu: 28%
  PT: 15.9 s
  Plat: 113.5 x10_4/uL
  RBC: 614.2 x10_4/ul
  Ret: 7.9%
  WBC: 58.9 x10_2/uL
  KIDNEY_L: 0.9 g
  KIDNEY_R: 0.9 g
  KIDNEY_TOTAL: 1.8 g
  LIVER: 9.1 g
  A/G: 1.3
  ALP: 1241.4 IU/L
  ALT: 43.8 IU/L
  AST: 93.6 IU/L
  BUN: 13.8 mg/dL
  CRE: 0.1 mg/dL
  Ca: 10 mg/dL
  Cl: 104.4 meq/L
  DBIL: 0 mg/dL
  GLC: 202.8 mg/dL
  IP: 7.2 mg/dL
  K: 3.2 meq/L
  LDH: 215.8 IU/L
  Na: 136.8 meq/L
  PL: 109.8 mg/dL
  RALB: 3.1 g/dL
  TBIL: 0.014 mg/dL
  TC: 66.8 mg/dL
  TG: 20 mg/dL
  TP: 5.4 g/dL
  gamma-GTP: 1.8 IU/L
[6]
  TERMINAL_BW: 216 g
  APTT: 22.3 s
  Bas: 0%
  Eos: 0.2%
  Fbg: 329.2 mg/dL
  Hb: 13.1 g/dL
  Ht: 39.7%
  Lym: 58.6%
  MCH: 20.6 pg
  MCHC: 33.1%
  MCV: 62.3 fL
  Mono: 3.6%
  Neu: 35.6%
  PT: 15.5 s
  Plat: 123.7 x10_4/uL
  RBC: 636.8 x10_4/ul
  Ret: 7.6%
  WBC: 75.8 x10_2/uL
  KIDNEY_L: 1 g
  KIDNEY_R: 1 g
  KIDNEY_TOTAL: 1.9 g
  LIVER: 9.5 g
  A/G: 1.3
  ALP: 1423 IU/L
  ALT: 46.2 IU/L
  AST: 111.4 IU/L
  BUN: 13.8 mg/dL
  CRE: 0.2 mg/dL
  Ca: 10.4 mg/dL
  Cl: 108.2 meq/L
  DBIL: 0 mg/dL
  GLC: 206.6 mg/dL
  IP: 6.8 mg/dL
  K: 3.5 meq/L
  LDH: 212.6 IU/L
  Na: 140.2 meq/L
  PL: 127 mg/dL
  RALB: 3.4 g/dL
  TBIL: 0.016 mg/dL
  TC: 72 mg/dL
  TG: 22.2 mg/dL
  TP: 6.1 g/dL
  gamma-GTP: 1.4 IU/L
[7]
  TERMINAL_BW: 212.2 g
  APTT: 24.6 s
  Bas: 0%
  Eos: 0%
  Fbg: 335.8 mg/dL
  Hb: 12.9 g/dL
  Ht: 38.7%
  Lym: 69.4%
  MCH: 20.3 pg
  MCHC: 33.4%
  MCV: 60.9 fL
  Mono: 1.4%
  Neu: 28.6%
  PT: 15.5 s
  Plat: 120.5 x10_4/uL
  RBC: 634.8 x10_4/ul
  Ret: 7.6%
  WBC: 51.8 x10_2/uL
  KIDNEY_L: 0.9 g
  KIDNEY_R: 0.9 g
  KIDNEY_TOTAL: 1.8 g
  LIVER: 8.7 g
  A/G: 1.3
  ALP: 1474.4 IU/L
  ALT: 38.8 IU/L
  AST: 86.2 IU/L
  BUN: 12 mg/dL
  CRE: 0.2 mg/dL
  Ca: 10.8 mg/dL
  Cl: 105 meq/L
  DBIL: 0 mg/dL
  GLC: 193.6 mg/dL
  IP: 7.1 mg/dL
  K: 3.5 meq/L
  LDH: 182.8 IU/L
  Na: 139 meq/L
  PL: 141 mg/dL
  RALB: 3.4 g/dL
  TBIL: 0.026 mg/dL
  TC: 77.4 mg/dL
  TG: 30.6 mg/dL
  TP: 6.2 g/dL
  gamma-GTP: 1.2 IU/L
[8]
  TERMINAL_BW: 224.5 g
  APTT: 21.6 s
  Bas: 0%
  Eos: 0.4%
  Fbg: 370.4 mg/dL
  Hb: 13.9 g/dL
  Ht: 41.2%
  Lym: 70.2%
  MCH: 20.7 pg
  MCHC: 33.6%
  MCV: 61.4 fL
  Mono: 3.2%
  Neu: 24%
  PT: 16.3 s
  Plat: 124.1 x10_4/uL
  RBC: 670.4 x10_4/ul
  Ret: 7%
  WBC: 103.6 x10_2/uL
  KIDNEY_L: 0.9 g
  KIDNEY_R: 1 g
  KIDNEY_TOTAL: 1.9 g
  LIVER: 9.4 g
  A/G: 1.2
  ALP: 1552.6 IU/L
  ALT: 44.8 IU/L
  AST: 76.2 IU/L
  BUN: 16.4 mg/dL
  CRE: 0.2 mg/dL
  Ca: 11.2 mg/dL
  Cl: 104.4 meq/L
  DBIL: 0 mg/dL
  GLC: 186.4 mg/dL
  IP: 8.4 mg/dL
  K: 4 meq/L
  LDH: 180 IU/L
  Na: 141.6 meq/L
  PL: 129.8 mg/dL
  RALB: 3.1 g/dL
  TBIL: 0.018 mg/dL
  TC: 75 mg/dL
  TG: 38.8 mg/dL
  TP: 5.6 g/dL
  gamma-GTP: 1.4 IU/L
